Assay results: patent US9656990B2, “Cathepsin cysteine protease inhibitors” (Merck Sharp & Dohme Corp., priority 2014, dated 2017)

Experiments:
human cathepsin K = human cathepsin K (UniProt P43236, Y175D/V274L, species not given); experiment: Cathepsin K Assay; type: biochemical; details: IP from dose response curve; Z-Leu-Arg-AMC substrate, pH 5.5; read-out: hrbCat K (IP (nM))
human cathepsin F = biological target: T1, human cathepsin F (Homo sapiens, UniProt Q9UBX1); experiment: Cathepsin F Assay; type: biochemical; details: IP from dose response curve; Z-Phe-Arg-AMC substrate, pH 5.5; read-out: hCat F (IP (nM))
T1 sequence (Q9UBX1 271-484): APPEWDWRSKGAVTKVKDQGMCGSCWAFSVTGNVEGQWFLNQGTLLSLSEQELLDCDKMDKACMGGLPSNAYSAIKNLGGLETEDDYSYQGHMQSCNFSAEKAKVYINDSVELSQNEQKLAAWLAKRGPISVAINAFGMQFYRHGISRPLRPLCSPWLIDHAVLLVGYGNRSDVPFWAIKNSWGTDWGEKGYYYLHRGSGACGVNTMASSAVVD
Method in brief: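 Human cathepsin F (10 nM) preincubated 15 min at room temperature with compounds in 50 mM MES pH 5.5, 2.5 mM EDTA, 2.5 mM DTT, 10% DMSO. Z-Phe-Arg-AMC (8 μM) added; AMC release read by fluorescence (Ex 360/Em 460 nm) over 20 min, inhibition fit to dose-response model.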

SMILES | IC50 (human cathepsin K) | IC50 (human cathepsin F)
CC(C)[C@@H](C#N)NC(=O)[C@@H]1CCC(F)(F)C[C@H]1c1nn(-c2ncccc2F)cc1-c1ccc(N2CCS(=O)(=O)CC2)cc1 [Example 32, (1R,2R)-N-((S)-1-cyano-2-methylpropyl)-2-(4-(4-(1,1-dioxidothiomorpholino)phen-yl)-1-(3-fluoropyridin-2-yl)-1H-pyrazol-3-yl)-4,4-difluorocyclohexanecarbox-amide] | 7.11 nM | 2780 nM
N#CC1(NC(=O)[C@@H]2CCC(F)(F)C[C@H]2c2nn(-c3ncccc3F)cc2-c2ccc(N3CCS(=O)(=O)CC3)cc2)CC1 [Example 33, (1R,2R)-N-(1-cyanocyclopropyl)-2-(4-(4-(1,1-dioxidothiomorpholino)phen-yl)-1-(3-fluoropyridin-2-yl)-1H-pyrazol-3-yl)-4,4-difluorocyclohexanecarbox-amide] | 13.6 nM | 9540 nM
C[C@@H](C#N)NC(=O)[C@@H]1CCC(F)(F)C[C@H]1c1nn(-c2ncccc2F)cc1-c1ccc(N2CCS(=O)(=O)CC2)cc1 [Example 34, (1R,2R)-N-((S)-1-cyanoethyl)-2-(4-(4-(1,1-dioxidothiomorpholino)phen-yl)-1-(3-fluoropyridin-2-yl)-1H-pyrazol-3-yl)-4,4-difluorocyclohexanecarbox-amide] | 5.4 nM | 2830 nM
CC(C)[C@@H](C#N)NC(=O)[C@@H]1CCC(F)(F)C[C@H]1c1nn(-c2ncccc2F)cc1-c1ccc(N2CCS(=N)(=O)CC2)cc1 [Example 35, (1R,2R)-N-((S)-1-cyano-2-methylpropyl)-4,4-difluoro-2-(1-(3-fluoropyridin-2-yl)-4-(4-(1-imino-1-oxidothiomorpholino)phenyl)-1H-pyrazol-3-yl)cyclohexanecarboxamide] | 9.69 nM | 4890 nM
CN=S1(=O)CCN(c2ccc(-c3cn(-c4ncccc4F)nc3[C@@H]3CC(F)(F)CC[C@H]3C(=O)N[C@H](C#N)C(C)C)cc2)CC1 [Example 36, (1R,2R)-N-((S)-1-cyano-2-methylpropyl)-4,4-difluoro-2-(1-(3-fluoropyridin-2-yl)-4-(4-(1-(methylimino)-1-oxidothiomorpholino)phenyl)-1H-pyrazol-3-yl)cyclohexanecarboxamide] | 8.79 nM | 8180 nM
CN=S1(=O)CCN(c2ccc(-c3cn(-c4ccc(F)cn4)nc3[C@@H]3CC[C@H](F)C[C@H]3C(=O)NC3(C#N)CC3)cc2)CC1 [Example 37, (1R,2R,5S)-N-(1-cyanocyclopropyl)-5-fluoro-2-(1-(5-fluoropyridin-2-yl)-4-(4-(1-(methylimino)-1-oxidothiomorpholino)phenyl)-1H-pyrazol-3-yl)cyclohexanecarboxamide] | 1.76 nM | 1660 nM
CN=S1(=O)CCN(c2ccc(-c3cn(-c4ccc(F)cn4)nc3[C@@H]3CC[C@H](F)C[C@H]3C(=O)N[C@@H](C)C#N)cc2)CC1 [Example 38, (1R,2R,5S)-N-((S)-1-cyanoethyl)-5-fluoro-2-(1-(5-fluoropyridin-2-yl)-4-(4-(1-(methylimino)-1-oxidothiomorpholino)phenyl)-1H-pyrazol-3-yl)cyclohexanecarboxamide] | 1.14 nM | 855 nM
Cc1c(-c2ccc(N3CCS(=O)(=O)CC3)cc2)c([C@@H]2CCCC[C@H]2C(=O)NC2(C#N)CC2)nn1-c1ncccc1F [Example 41, (1R,2R)-N-(1-cyanocyclopropyl)-2-(4-(4-(1,1-dioxidothiomorpholino)phen-yl)-1-(3-fluoropyridin-2-yl)-5-methyl-1H-pyrazol-3-yl)cyclohexanecarboxamide] | 8.5 nM | 5390 nM
Cc1c(-c2ccc(N3CCS(=O)(=O)CC3)cc2)c([C@@H]2CCCC[C@H]2C(=O)N[C@@H](C)C#N)nn1-c1ncccc1F [Example 42, (1R,2R)-N-((S)-1-cyanoethyl)-2-(4-(4-(1,1-dioxidothiomorpholino)phen-yl)-1-(3-fluoropyridin-2-yl)-5-methyl-1H-pyrazol-3-yl)cyclohexanecarboxamide] | 3.62 nM | 1990 nM
Cc1c(-c2ccc(N3CCS(=O)(=O)CC3)cc2)c([C@@H]2CCCC[C@H]2C(=O)N[C@H](C#N)C(C)C)nn1-c1ncccc1F [Example 43, (1R,2R)-N-((S)-1-cyano-2-methylpropyl)-2-(4-(4-(1,1-dioxidothiomorpholino)phen-yl)-1-(3-fluoropyridin-2-yl)-5-methyl-1H-pyrazol-3-yl)cyclohexanecarboxamide] | 12.1 nM | 4550 nM
CN=S1(=O)CCN(c2ccc(-c3c([C@@H]4CCCC[C@H]4C(=O)NC4(C#N)CC4)nn(-c4ncccc4F)c3C)cc2)CC1 [Example 44, (1R,2R)-N-(1-cyanocyclopropyl)-2-(1-(3-fluoropyridin-2-yl)-5-methyl-4-(4-(1-(methylimino)-1-oxidothiomorpholino)phenyl)-1H-pyrazol-3-yl)cyclohexanecarboxamide] | 13.9 nM | 8840 nM
C[C@@H](C#N)NC(=O)[C@@H]1CCC(F)(F)C[C@H]1c1nn(-c2ncccc2F)cc1-c1ccc(N2CCS(=N)(=O)CC2)cc1 [Example 45, (1R,2R)-N-((S)-1-cyanoethyl)-4,4-difluoro-2-(1-(3-fluoropyridin-2-yl)-4-(4-(1-imino-1-oxidothiomorpholino)phenyl)-1H-pyrazol-3-yl)cyclohexanecarboxamide] | 6.61 nM | 5480 nM
CN=S1(=O)CCN(c2ccc(-c3cn(-c4ncccc4F)nc3[C@@H]3CC(F)(F)CC[C@H]3C(=O)N[C@@H](C)C#N)cc2)CC1 [Example 46, (1R,2R)-N-((S)-1-cyanoethyl)-4,4-difluoro-2-(1-(3-fluoropyridin-2-yl)-4-(4-(1-(methylimino)-1-oxidothiomorpholino)phenyl)-1H-pyrazol-3-yl)cyclohexanecarboxamide] | 5.78 nM | 6620 nM
CN=S1(=O)CCN(c2ccc(-c3c([C@@H]4CCCC[C@H]4C(=O)N[C@@H](C)C#N)nn(-c4ncccc4F)c3C)cc2)CC1 [Example 47, (1R,2R)-N-((S)-1-cyanoethyl)-2-(1-(3-fluoropyridin-2-yl)-5-methyl-4-(4-(1-(methylimino)-1-oxidothiomorpholino)phenyl)-1H-pyrazol-3-yl)cyclohexanecarboxamide] | 5.48 nM | 3240 nM
CN=S1(=O)CCN(c2ccc(-c3c([C@@H]4CCCC[C@H]4C(=O)N[C@H](C#N)C(C)C)nn(-c4ncccc4F)c3C)cc2)CC1 [Example 48, (1R,2R)-N-((S)-1-cyano-2-methylpropyl)-2-(1-(3-fluoropyridin-2-yl)-5-methyl-4-(4-(1-(methylimino)-1-oxidothiomorpholino)phenyl)-1H-pyrazol-3-yl)cyclohexanecarboxamide] | 19.2 nM | 7350 nM
Cc1c(-c2ccc(N3CCS(=N)(=O)CC3)cc2)c([C@@H]2CCCC[C@H]2C(=O)NC2(C#N)CC2)nn1-c1ncccc1F [Example 50, (1R,2R)-N-(1-cyanocyclopropyl)-2-(1-(3-fluoropyridin-2-yl)-4-(4-(1-imino-1-oxidothiomorpholino)phenyl)-5-methyl-1H-pyrazol-3-yl)cyclohexanecarboxamide] | 14 nM | 7790 nM
Cc1c(-c2ccc(N3CCS(=N)(=O)CC3)cc2)c([C@@H]2CCCC[C@H]2C(=O)N[C@@H](C)C#N)nn1-c1ncccc1F [Example 51, (1R,2R)-N-((S)-1-cyanoethyl)-2-(1-(3-fluoropyridin-2-yl)-4-(4-(1-imino-1-oxidothiomorpholino)phenyl)-5-methyl-1H-pyrazol-3-yl)cyclohexanecarboxamide] | 7.41 nM | 3870 nM
Cc1c(-c2ccc(N3CCS(=N)(=O)CC3)cc2)c([C@@H]2CCCC[C@H]2C(=O)N[C@H](C#N)C(C)C)nn1-c1ncccc1F [Example 52, (1R,2R)-N-((S)-1-cyano-2-methylpropyl)-2-(1-(3-fluoropyridin-2-yl)-4-(4-(1-imino-1-oxidothiomorpholino)phenyl)-5-methyl-1H-pyrazol-3-yl)cyclohexanecarboxamide] | 22.5 nM | 9320 nM
C[C@@H](C#N)NC(=O)[C@@H]1C[C@@H](F)CC[C@H]1c1nn(-c2ncccc2F)cc1-c1ccc(N2CCS(=N)(=O)CC2)cc1 [Example 57, (1R,2R,5S)-N-((S)-1-cyanoethyl)-5-fluoro-2-(1-(3-fluoropyridin-2-yl)-4-(4-(1-imino-1-oxidothiomorpholino)phenyl)-1H-pyrazol-3-yl)cyclohexanecarboxamide] | 8.3 nM | 7770 nM
N#CC1(NC(=O)[C@@H]2C[C@@H](F)CC[C@H]2c2nn(-c3ccc(F)cn3)cc2-c2ccc(N3CCS(=N)(=O)CC3)cc2)CC1 [Example 59, (1R,2R,5S)-N-(1-cyanocyclopropyl)-5-fluoro-2-(1-(5-fluoropyridin-2-yl)-4-(4-(1-imino-1-oxidothiomorpholino)phenyl)-1H-pyrazol-3-yl)cyclohexanecarboxamide] | 1.29 nM | 2460 nM
C[C@@H](C#N)NC(=O)[C@@H]1C[C@@H](F)CC[C@H]1c1nn(-c2ccc(F)cn2)cc1-c1ccc(N2CCS(=N)(=O)CC2)cc1 [Example 60, (1R,2R,5S)-N-((S)-1-cyanoethyl)-5-fluoro-2-(1-(5-fluoropyridin-2-yl)-4-(4-(1-imino-1-oxidothiomorpholino)phenyl)-1H-pyrazol-3-yl)cyclohexanecarboxamide] | 1.43 nM | 674 nM
